The structures appear in SMILES notation. Calls of active or inactive are those of the source. The calls are words filed in the database; no cut-off is given here.

What all share (assay type): functional, cell-based
In test [1] the test system is A549. In words: Effect on cell morphology in A549 cells assessed as induction of cellular vacuolation. To be noted: Homo sapiens.
For test [2], the system named is A549. In words: Growth inhibition in A549 cells at 50 uM by MTT assay. To be noted: Homo sapiens. (In general: Tetrazolium assays rely on reduction of a dye to a coloured formazan, in cell work by metabolically active cells.)
Test [3] deals with A549. In words: Growth inhibition in A549 cells at 100 uM by MTT assay. The note with it: Homo sapiens.
Test [4] concerns A549. In words: Growth inhibition in A549 cells at 25 uM after 48 hrs by MTT assay. To be noted: Homo sapiens.
The test system of test [5] is A549. As to the kind of experiment: Growth inhibition in A549 cells after 48 hrs by MTT assay. To be noted: Homo sapiens, A549, 48 h.
For test [6], the system named is A549. As to the kind of experiment: Growth inhibition in A549 cells at 12.5 uM after 48 hrs by MTT assay. To be noted: Homo sapiens.
Test [7] concerns A549. In words: Growth inhibition in A549 cells at 25 uM after 24 hrs by MTT assay. To be noted: Homo sapiens.
For test [8], the system named is A549. In words: Effect on cell morphology in A549 cells assessed as induction of differentiation at 50 uM. To be noted: Homo sapiens.

The term IC50 denotes the concentration that gives 50% inhibition. High values mean weaker potency in that assay, low ones greater potency in that assay. With `CCOC(=O)c1cc(-c2ccc(Cl)cc2)nn1CC(O)COc1ccc(Cl)cc1` (stereo unspecified), the outcome in the test with A549 [1], with A549 [2], in the test on A549 [3] and with A549 [4] was Active. The molecule also gave an IC50 in the test with A549 [5] of 33 µM.

Regarding `CCOC(=O)c1cc(-c2ccc(Cl)cc2)nn1CC(O)COc1ccccc1[N+](=O)[O-]` (stereo unspecified), the outcome in the test with A549 [2], with A549 [3], in the test on A549 [6] and in the test with A549 [7] was Active. Also, the result in the test with A549 [4] was inactive. This molecule registered a concentration for half-maximal inhibition (IC50) with A549 [5] of 26 µM.

For `CCOC(=O)c1cc(-c2ccccc2)nn1CC(O)COc1ccccc1[N+](=O)[O-]` (stereo unspecified), the outcome in the test on A549 [2], in the test with A549 [3] and with A549 [7] was Active. Also, in the test with A549 [4], the outcome was inactive. The molecule also came in with a half-inhibitory concentration (IC50) with A549 [5] of 30 µM.

For `CCOC(=O)c1cc(-c2ccc(OC)cc2)nn1CC(O)COc1ccc(Cl)cc1` (stereo unspecified), the outcome in the test on A549 [2] and in the test with A549 [3] was Active. In the test on A549 [5], this molecule came in with a half-maximal inhibitory concentration (IC50) of 38 µM.

On to `CCOC(=O)c1cc(-c2ccc(Cl)cc2)nn1CC(O)COc1ccccc1` (stereo unspecified), for which the result in the test with A549 [8], with A549 [2], with A549 [3], with A549 [6] and with A549 [7] was Active. Besides, the result in the test with A549 [4] was inactive. Moreover, in the test on A549 [5], inhibition was half-maximal at 27 µM (IC50).

`CCOC(=O)c1cc(-c2ccc(Cl)cc2)nn1CC(O)COc1ccccc1OC` (stereo unspecified): the outcome in the test on A549 [2], in the test on A549 [3] and in the test on A549 [4] was Active. Besides, the half-inhibitory concentration (IC50) with A549 [5] was found to be 32 µM.

As for `CCOC(=O)c1cc(-c2ccccc2)nn1CC(O)COc1ccccc1` (stereo unspecified), the outcome in the test on A549 [2], in the test with A549 [3] and in the test with A549 [4] was Active. This molecule also registered an IC50 in the test with A549 [5] of 65 µM.

On to `CCOC(=O)c1cc(-c2ccc(OC)cc2)nn1CC(O)COc1ccc([N+](=O)[O-])cc1` (stereo unspecified), for which the result in the test with A549 [2] and with A549 [3] was Active. The same molecule yielded a 50% inhibitory concentration (IC50) in the test with A549 [5] of 44 µM.

As for `CCOC(=O)c1cc(-c2ccc(OC)cc2)nn1CC(O)COc1ccccc1` (stereo unspecified), the outcome with A549 [2], in the test with A549 [3] and in the test on A549 [4] was Active. For the same molecule, the half-maximal inhibitory concentration (IC50) in the test on A549 [5] came out at 33 µM.

In the case of `CCOC(=O)c1cc(-c2ccc(Cl)cc2)nn1CC(O)COc1ccc([N+](=O)[O-])cc1` (stereo unspecified), the result in the test with A549 [2], with A549 [3], in the test with A549 [6] and in the test with A549 [7] was Active. Besides, the result in the test with A549 [4] was inactive. The IC50 in the test on A549 [5] turned out to be 45 µM.

As for `CCOC(=O)c1cc(-c2ccccc2)nn1CC(O)COc1ccccc1OC` (stereo unspecified), the outcome in the test with A549 [2], with A549 [3] and in the test with A549 [7] was Active. Besides, the result in the test on A549 [4] was inactive. Also, half-maximal inhibition with A549 [5] (IC50) was put at 58 µM.

Take `CCOC(=O)c1cc(-c2ccccc2)nn1CC(O)COc1ccc(Cl)cc1` (stereo unspecified): the outcome in the test with A549 [2] and in the test on A549 [3] was Active. This molecule came in with an IC50 with A549 [5] of 59 µM.

Take `CCOC(=O)c1cc(-c2ccc(OC)cc2)nn1CC(O)COc1ccccc1[N+](=O)[O-]` (stereo unspecified): the result in the test on A549 [2] and with A549 [3] was Active. Also, 45 µM corresponded to half-maximal inhibition in the test with A549 [5] (IC50).

As for `CCOC(=O)c1cc(-c2ccccc2)nn1CC(O)COc1ccc([N+](=O)[O-])cc1` (stereo unspecified), the result in the test with A549 [2], with A549 [3] and with A549 [7] was Active. In addition, in the test on A549 [4], the result was inactive. In addition, the concentration for half-maximal inhibition (IC50) with A549 [5] is 48 µM.

Take `CCOC(=O)c1cc(-c2ccc(OC)cc2)nn1CC(O)COc1ccccc1OC` (stereo unspecified): the outcome with A549 [2] and in the test with A549 [3] was Active. In addition, it took 68 µM to reach half-maximal inhibition in the test with A549 [5] (IC50).

The values above are taken from ChEMBL document CHEMBL1146159, “Design, synthesis, and preliminary biological evaluation of novel ethyl 1-(2'-hydroxy-3'-aroxypropyl)-3-aryl-1H-pyrazole-5-carboxylate” (Bioorg Med Chem Lett, 2006).
